Data reported in patent US8987285B2, “Pharmaceutical compositions, dosage forms and new forms of the compound of formula (I), and methods of use thereof” (Portola Pharmaceuticals, Inc., priority 2010, dated 2015).
Read-outs that look alike come from different tables or passages of the source.

Key:
Format in all cases: physicochemical
[1] = pKa, log P and log D of the compound of formula (II)
Text: The pKa of the compound of formula (II) is about 3.3, with a log P of about 2.5 and log D (pH7.4) of about −1.6.

[2] = Supersaturation stabilization experiment with PVP K90 (CheqSol)
Text: Typically the higher the super saturation, the faster and the more extensive is the precipitation which occurs. On the other hand, higher bioavailability may be achieved by using excipients which interact with the drug in the super-saturated state. In this super-saturated state, precipitation is inhibited and/or delayed, thus leading to higher luminal drug concentrations in vivo of the dissolved drug. […] The present invention thus provides a pharmaceutical composition which achieves higher bioavailability of the drug substance.

[3] = Super-saturation measurement (CheqSol): intrinsic and kinetic solubility; conditions: for ratio super saturation: kinetic solubility divided by intrinsic solubility
Text: Anal. Chem. 2005, 77(4), 983-990; 2—Box, K J. Völgyi, G. Baka, E. Stuart, M. Takács-Novák, K. Corner, J E A. Equilibrium vs. kinetic measurements of aqueous solubility, and the ability of compounds to supersaturate in solution—a validation study. J. Pharm. Sci. 2006, 95, 1298-1307; 3—Sköld, C. Winiwarter, S. Johan Wernevik, J. Bergström, F. Engström, L. Allen, R. Box, K. Corner, J. Mole, J. Hallberg, A. Lennernäs, H. Lundstedt, T. Ungell, A-L. Karlén, A. Presentation of a Structurally Diverse and Commercially Available Drug Data Set for Correlation and Benchmarking Studies. J. Med. Chem. 2006, 49(23), 6660-6671;
. Med. Chem.; 2007, 50 (5), 979-983; 5—Llinás, A. Box, K J. Burley, J C. Glen, R C. Goodman, J M. J. A new method for the reproducible generation of polymorphs: two forms of Sulindac with very different solubilities. […] 6—Box K et al, Using Measured pKa, Log P and Solubility to Investigate Supersaturation and Predict BCS Class, Current Drug Metabolism, 2008, 9, 869-878]
1—kinetic solubility is the concentration of a compound in solution at the time when an induced precipitate first appears
2—equilibrium solubility (also called thermodynamic solubility) is the concentration of compound in a saturated solution when excess solid is present, and solution and solid are at equilibrium
3—intrinsic solubility [Hörter, D.; Dressman, J. B. Adv. Drug Deliv. Rev., 1997, 25, 3-14] is the equilibrium solubility of the free acid or base form of an ionisable compound at a pH where it is fully un-ionized
The super-saturation ratio is calculated as the ratio of kinetic solubility divided by the Intrinsic Solubility.

[4] = Wettability: contact angle measurement with water on pressed powder; conditions: water, in ° (unit assumed)
Protocol: Contact angel instrument: EasyDrop DSA15E (Krüss, Hamburg, Germany)
Syringe: NE44, diameter of needle 0.5 mm (Krüss, Hamburg, Germany)
The powder was pressed (approx 50 mg powder, 3 tons, 2 min) in tablets and analyzed by contact angle measurement. The angel between the solid and the liquid is measured after 0 and up to 60 seconds using water.
All determinations used the above method and the limit for the standards measurements are well within the given limits.

[5] = Saturation solubility, shake-flask with UV quantification; conditions: for solubility at 72 h: thermodynamic from solid
Protocol: The FaSSIF and FeSSIF solutions were prepared using Phares SIF powder according to the formulation instructions and the SGF solution was prepared using the guidelines provided. […] The pH and temperature of the supernatant were measured on a SiriusT3 instrument.

[6] = Aqueous solubility of the free acid versus pH; conditions: aqueous buffer
Text: […]. […] In certain instances, the active agent is initially present at least partly in an ionized form. In certain other instances, the active agent is initially present in an un-ionized form.

CNc1cc2[nH]c(=O)n(-c3ccc(NC(=O)NS(=O)(=O)c4ccc(Cl)s4)cc3)c(=O)c2cc1F [compound of formula (II), elinogrel]
LogP [1]: ~2.5 | pKa ([1]; first pKa): about 3.3 | logD ([1]; pH 7.4, pH7.4): ~-1.6 | pKa ([1]; read-out: second pKa): 10.3 | stable super-saturation ([2]; PVP K90 to drug 1:1 by weight, pH>6.0, for 66 hours): 17-86 fold | concentration in solution with PVP ([2]; after 67 h with PVP, pH 7.2): 860 µg/mL | solubility ([2]; aqueous buffer, pH 6.0, read-out: solubility measured by Sirius CheqSol): 9.9 µg/mL | solubility at 66 h ([2]; pH 7.2, aqueous buffer): ~170 µg/mL | solubility kinetic ([3]; kinetic from dmso stock, CheqSol): 4.17 µg/mL | ratio super saturation ([3]; listed as Free acid): 179 | ratio super saturation ([3]; listed as free acid of formula (II)): 178 | solubility ([3]; thermodynamic from solid, CheqSol): 0.0234 µg/mL | Contact angle ([4]; 0 sec): 65.9 | Contact angle ([4]; 30 sec): 60.8 | Contact angle ([4]; 60 sec): 60.1 | final pH measured of the supernatant ([5]; FaSSIF pH 6.5-1w): 6.42 | final pH measured of the supernatant ([5]; FeSSIF pH 5.0-1w): 4.97 | final pH measured of the supernatant ([5]; Na Phosphate pH 6.8): 6.80 | final pH measured of the supernatant ([5]; Na-Acetate pH 4.5): 4.53 | final pH measured of the supernatant ([5]; SGF pH 2.1): 2.21 | solubility at 72 h ([5]; aqueous buffer, Na Phosphate pH 6.8, mean N = 2): 11.3 µg/mL | solubility at 72 h ([5]; aqueous buffer, Na-Acetate pH 4.5, mean N = 2): 0.89 µg/mL | solubility at 72 h ([5]; simulated gastric fluid, SGF pH 2.1, mean N = 2): 0.48 µg/mL | solubility at 72 h ([5]; FaSSIF pH 6.5-1w, mean N = 2): 25.2 µg/mL | solubility at 72 h ([5]; FeSSIF pH 5.0-1w, mean N = 2): 6 µg/mL | solubility ([6]; pH 1.0-7.4, read-out: aqueous solubility of the free acid form): < 100 µg/mL | solubility ([6]; pH 8 or above, read-out: aqueous solubility): ≥ 1000 µg/mL
